# From paper PMC9246766 (Pharmaceutical research, 2022)
# Like-named read-outs stand apart in the source and are kept apart here.
# How the values were obtained:
# OCT3 [1] = molecular target: T1, OCT3 (Homo sapiens, UniProt O75751); assay: High throughput screen: inhibition of OCT3-mediated ASP+ uptake in HEK-293 cells stably expressing OCT3; format: cell-based; settings: for inhibition at 20 µM: HEK293
# T1 sequence (O75751 1-556): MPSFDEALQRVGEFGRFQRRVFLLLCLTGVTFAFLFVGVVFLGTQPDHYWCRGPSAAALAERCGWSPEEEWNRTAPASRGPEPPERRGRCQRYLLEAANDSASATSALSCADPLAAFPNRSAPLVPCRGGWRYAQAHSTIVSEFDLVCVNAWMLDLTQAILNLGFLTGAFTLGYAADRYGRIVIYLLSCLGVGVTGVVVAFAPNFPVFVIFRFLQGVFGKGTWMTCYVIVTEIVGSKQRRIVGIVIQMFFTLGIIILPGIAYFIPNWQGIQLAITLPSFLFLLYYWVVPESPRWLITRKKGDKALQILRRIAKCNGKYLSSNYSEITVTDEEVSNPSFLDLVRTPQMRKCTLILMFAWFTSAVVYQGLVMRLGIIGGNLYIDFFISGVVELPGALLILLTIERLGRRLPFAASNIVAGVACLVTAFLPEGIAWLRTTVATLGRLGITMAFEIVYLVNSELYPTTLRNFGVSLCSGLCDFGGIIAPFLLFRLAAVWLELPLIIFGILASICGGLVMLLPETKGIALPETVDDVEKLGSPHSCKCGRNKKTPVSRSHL
# [2] = total maximum plasma concentration; ref http://www.micromedexsolutions.com/; cited from earlier work
# OCT3 [3] = molecular target: T1, OCT3; assay: IC50 determination against OCT3-mediated ASP+ uptake in HEK-293 cells overexpressing OCT3; format: cell-based
# [4] = plasma protein binding used for unbound CMAX; source not given; cited from earlier work
# [5] = cited from earlier work; for FDA product insert: warnings, precautions and major adverse reactions: cardiovascular / CNS related, ref FDA product insert; for Neurological Effects (from Literature): ref Pubmed ID of Table SII; for Neurological side effects: stated in discussion, ref Table SII, 60
# OCT3 [6] = molecular target: T1, OCT3; assay: Predicted DDI potential: ratio of plasma CMAX (total or unbound) to predicted OCT3 IC50; settings: unbound plasma CMAX over predicted OCT3 IC50
# OCT3 [7] = molecular target: T1, OCT3; assay: IC50 determination against OCT3-mediated [14C]metformin uptake in HEK-293 cells overexpressing OCT3; format: cell-based
SMILES,IC50 (OCT3 [1]) [µM],inhibition at 20 µM (OCT3 [1]) [%],Cmax [2] [nM],IC50 (OCT3 [3]) [µM],Protein binding [4] [%],"FDA product insert: warnings, precautions and major adverse reactions [5]",Neurological Effects (from Literature) [5],Neurological side effects [5],Unbound CMAX/IC50 (OCT3 [6]),IC50 (OCT3 [7]) [nM],"FDA product insert: warnings, precautions and major adverse reactions ([5]; listed as Quinine)","FDA product insert: warnings, precautions and major adverse reactions ([5]; listed as Trimethoprim)"
CC(=O)N1CCN(c2ccc(OCC3COC(Cn4ccnc4)(c4ccc(Cl)cc4Cl)O3)cc2)CC1 (centres unmarked) [ketoconazole],< 5,93.4,1900,0.42,91,–,–,–,–,–,–,–
Cc1c(OCC(F)(F)F)ccnc1C[S+]([O-])c1nc2ccccc2[nH]1 (centres unmarked) [lansoprazole],< 5,87.2,2900,–,97,"No warnings and precautions regarding to cardiovascular, CNS",Increase the risk of dementia,–,–,–,–,–
Cc1oncc1C(=O)Nc1ccc(C(F)(F)F)cc1 [leflunomide],19.6,50.5,233000,–,99.3,"No warnings and precautions regarding to cardiovascular, CNS",–,–,–,–,–,–
C[C@@H](O)[C@H]1C(=O)N2C(C(=O)O)=C(S[C@@H]3CN[C@H](C(=O)N(C)C)C3)[C@H](C)[C@H]12 [meropenem],10.8,65,256000,–,–,Warnings and precautions: Seizures and other adverse CNS experiences have been reported during treatment.,–,neurological side effects,23.3,–,–,–
COc1ccc2[nH]c([S+]([O-])Cc3ncc(C)c(OC)c3C)nc2c1 (centres unmarked) [omeprazole],11.2,64.1,4200,–,95,"No warnings and precautions regarding to cardiovascular, CNS",Increase the risk of dementia,–,–,–,–,–
COc1ccc(Cc2nccc3cc(OC)c(OC)cc23)cc1OC [papaverine],–,–,–,4.1,–,–,–,–,–,1200,–,–
C[C@]12C=CC(=O)C=C1CC[C@@H]1[C@@H]2[C@@H](O)C[C@@]2(C)[C@H]1CC[C@]2(O)C(=O)CO [prednisolone],9.6,67.5,2900,–,70,–,Behavirol effects,–,–,–,–,–
CCCNCC(O)COc1ccccc1C(=O)CCc1ccccc1 (centres unmarked) [propafenone],7,74,–,2.4,–,–,–,–,–,–,–,–
C=C[C@H]1C[N@@]2CC[C@H]1C[C@H]2[C@H](O)c1ccnc2ccc(OC)cc12 [quinine],< 5,90.6,–,6.6,–,warnings and precautions related to cardiovascular side-effects,–,–,–,–,Warnings and precautions: QT prolongation and ventricular arrhythmias. Avoid concomitant use with drugs known to prolong QT interval.,–
COCCCOc1ccnc(C[S+]([O-])c2nc3ccccc3[nH]2)c1C (centres unmarked) [rabeprazole],< 5,87.3,1300,–,96,"No warnings and precautions regarding to cardiovascular, CNS",–,–,–,–,–,–
CC(=O)S[C@@H]1CC2=CC(=O)CC[C@]2(C)[C@H]2CC[C@@]3(C)[C@@H](CC[C@@]34CCC(=O)O4)[C@H]12 [spironolactone],< 5,82.8,1100,–,93,"No warnings and precautions regarding to cardiovascular, CNS","Neurotoxicity, lipophilic and cross the blood brain barrier",–,–,–,–,–
CCCc1nc2c(C)cc(-c3nc4ccccc4n3C)cc2n1Cc1ccc(-c2ccccc2C(=O)O)cc1 [telmisartan],–,81.6,2800,12,99.5,"No warnings and precautions regarding to cardiovascular, CNS","Neuroprotective effect, across bbb",–,–,3900,–,–
COc1cc(Cc2cnc(N)nc2N)cc(OC)c1OC [trimethoprim],–,–,5900,–,–,warnings and precautions related to cardiovascular side-effects,Trimethoprim/sulfamethaxazole (TMP-SMX) has been reported to be associated with encephalopathy and psychosis,neurological side effects,–,–,–,Post marketing experience: QT prolongation resulting in ventricular tachycardia and torsade de pointes
Cc1onc(-c2ccccc2)c1-c1ccc(S(N)(=O)=O)cc1 [valdecoxib],17.3,53.6,2200,–,98,–,"Neuroprotective effect, across bbb",–,–,–,–,–
